According to patent publication US7528252B2, “Derivatives of triazoly-imidazopyridine useful as ligands of the adenosine A2a receptor and their use as medicaments” (Sigma-Tau Industrie Farmaceutiche Riunite S.p.A., priority 2002, dated 2009):

How the values were obtained:
D3 = D3 (Homo sapiens, UniProt P35462); test: Receptor binding study, D3; details: mean values, n = 2, read-out: percent inhibition of control specific binding
GABAtransporter = test: Receptor binding study, GABA transporter; details: 1 μM; mean values, n = 2
β2 = β2 (Homo sapiens, UniProt P07550); test: Receptor binding study, β2; details: mean values, n = 2, read-out: percent inhibition of control specific binding
β2, sequence (P07550 whole entry): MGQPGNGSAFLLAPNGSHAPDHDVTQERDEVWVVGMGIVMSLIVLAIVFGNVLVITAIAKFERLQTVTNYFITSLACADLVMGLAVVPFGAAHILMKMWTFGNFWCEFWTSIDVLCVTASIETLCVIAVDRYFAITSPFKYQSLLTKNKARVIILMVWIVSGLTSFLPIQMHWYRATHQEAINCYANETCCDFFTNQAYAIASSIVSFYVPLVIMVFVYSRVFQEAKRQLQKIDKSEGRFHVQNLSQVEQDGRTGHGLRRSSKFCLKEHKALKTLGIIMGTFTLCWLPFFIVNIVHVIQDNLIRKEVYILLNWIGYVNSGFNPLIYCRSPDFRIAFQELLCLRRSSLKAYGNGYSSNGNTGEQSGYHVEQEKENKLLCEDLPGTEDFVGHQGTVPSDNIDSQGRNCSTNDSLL

Cholinetransporter = biological target: T1, Cholinetransporter (Homo sapiens, UniProt Q9GZV3); test: Receptor binding study, Choline transporter; details: 1 μM; mean values, n = 2; read-out: percent inhibition of control specific binding
T1 sequence (Q9GZV3 1-580): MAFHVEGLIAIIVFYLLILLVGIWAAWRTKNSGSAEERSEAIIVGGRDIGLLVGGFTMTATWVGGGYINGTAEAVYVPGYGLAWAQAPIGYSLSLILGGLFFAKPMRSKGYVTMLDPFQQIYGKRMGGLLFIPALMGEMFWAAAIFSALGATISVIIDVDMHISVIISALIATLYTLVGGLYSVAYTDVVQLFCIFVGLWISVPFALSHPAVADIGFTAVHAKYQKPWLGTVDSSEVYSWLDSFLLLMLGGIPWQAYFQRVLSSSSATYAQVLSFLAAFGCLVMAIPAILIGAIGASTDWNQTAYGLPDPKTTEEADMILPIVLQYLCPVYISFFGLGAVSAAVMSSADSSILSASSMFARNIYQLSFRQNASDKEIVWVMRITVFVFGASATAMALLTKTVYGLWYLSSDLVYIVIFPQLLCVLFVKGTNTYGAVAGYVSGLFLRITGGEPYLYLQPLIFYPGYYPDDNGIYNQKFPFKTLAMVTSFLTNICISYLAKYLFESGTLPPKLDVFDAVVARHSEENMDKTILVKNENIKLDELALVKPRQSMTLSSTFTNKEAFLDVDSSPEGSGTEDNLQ

BZD (central) = test: Receptor binding study, BZD (central); details: 1 μM; mean values, n = 2
M3 = M3 (Homo sapiens, UniProt P20309); test: Receptor binding study, M3; details: mean values, n = 2, read-out: percent inhibition of control specific binding
M3, sequence (P20309 whole entry): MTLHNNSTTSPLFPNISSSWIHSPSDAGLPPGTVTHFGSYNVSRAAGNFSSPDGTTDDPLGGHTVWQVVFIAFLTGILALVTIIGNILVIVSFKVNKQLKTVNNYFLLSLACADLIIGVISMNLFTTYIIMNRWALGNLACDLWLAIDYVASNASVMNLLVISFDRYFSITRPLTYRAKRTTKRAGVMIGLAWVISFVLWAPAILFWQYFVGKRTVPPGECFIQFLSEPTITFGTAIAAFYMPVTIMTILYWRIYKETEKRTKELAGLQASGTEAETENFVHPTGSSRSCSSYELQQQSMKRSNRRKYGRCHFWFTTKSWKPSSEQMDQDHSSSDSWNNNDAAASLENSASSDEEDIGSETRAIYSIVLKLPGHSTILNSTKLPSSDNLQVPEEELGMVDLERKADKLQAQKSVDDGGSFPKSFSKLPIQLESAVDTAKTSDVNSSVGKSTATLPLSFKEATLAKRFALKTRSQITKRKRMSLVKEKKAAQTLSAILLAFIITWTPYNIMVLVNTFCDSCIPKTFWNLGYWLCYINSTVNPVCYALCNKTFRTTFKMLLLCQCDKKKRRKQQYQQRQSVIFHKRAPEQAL

5-HT6 (h) = 5-HT6 (h) (Homo sapiens, UniProt P50406); test: Receptor binding study, 5-HT6; details: mean values, n = 2, read-out: percent inhibition of control specific binding
5-HT6 (h), sequence (P50406 whole entry): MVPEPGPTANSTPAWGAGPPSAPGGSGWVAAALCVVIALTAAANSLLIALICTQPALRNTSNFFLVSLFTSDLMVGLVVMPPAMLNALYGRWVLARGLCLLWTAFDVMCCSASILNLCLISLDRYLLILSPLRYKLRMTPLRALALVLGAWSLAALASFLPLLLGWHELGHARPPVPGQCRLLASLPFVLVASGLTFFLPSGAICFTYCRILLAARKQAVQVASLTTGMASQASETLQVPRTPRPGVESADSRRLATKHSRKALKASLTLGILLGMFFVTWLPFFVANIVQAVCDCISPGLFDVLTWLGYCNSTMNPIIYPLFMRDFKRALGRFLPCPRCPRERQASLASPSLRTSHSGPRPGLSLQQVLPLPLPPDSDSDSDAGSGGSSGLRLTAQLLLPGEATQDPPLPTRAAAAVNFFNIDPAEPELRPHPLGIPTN

α2(non-selective) = test: Receptor binding study, α2; details: 1 μM; mean values, n = 2
P2X = test: Receptor binding study, P2X; details: 1 μM; mean values, n = 2
5-HT3 (h) = 5-HT3 (h) (Homo sapiens, UniProt P46098); test: Receptor binding study, 5-HT3; details: mean values, n = 2, read-out: percent inhibition of control specific binding
5-HT3 (h), sequence (P46098 24-478): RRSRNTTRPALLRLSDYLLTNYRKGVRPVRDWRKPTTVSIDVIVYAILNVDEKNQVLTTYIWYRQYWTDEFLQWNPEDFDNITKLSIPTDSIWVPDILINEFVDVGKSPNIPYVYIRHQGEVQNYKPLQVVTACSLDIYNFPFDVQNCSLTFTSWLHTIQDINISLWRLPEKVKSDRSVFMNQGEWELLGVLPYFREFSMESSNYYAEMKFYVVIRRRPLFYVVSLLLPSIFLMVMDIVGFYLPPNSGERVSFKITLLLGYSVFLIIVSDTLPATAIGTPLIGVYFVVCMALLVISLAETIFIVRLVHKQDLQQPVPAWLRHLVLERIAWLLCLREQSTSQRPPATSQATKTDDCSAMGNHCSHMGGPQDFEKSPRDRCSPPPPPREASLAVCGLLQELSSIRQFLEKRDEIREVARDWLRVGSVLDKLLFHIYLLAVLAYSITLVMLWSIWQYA

M1 = M1 (Homo sapiens, UniProt P11229); test: Receptor binding study, M1; details: mean values, n = 2, read-out: percent inhibition of control specific binding
M1, sequence (P11229 whole entry): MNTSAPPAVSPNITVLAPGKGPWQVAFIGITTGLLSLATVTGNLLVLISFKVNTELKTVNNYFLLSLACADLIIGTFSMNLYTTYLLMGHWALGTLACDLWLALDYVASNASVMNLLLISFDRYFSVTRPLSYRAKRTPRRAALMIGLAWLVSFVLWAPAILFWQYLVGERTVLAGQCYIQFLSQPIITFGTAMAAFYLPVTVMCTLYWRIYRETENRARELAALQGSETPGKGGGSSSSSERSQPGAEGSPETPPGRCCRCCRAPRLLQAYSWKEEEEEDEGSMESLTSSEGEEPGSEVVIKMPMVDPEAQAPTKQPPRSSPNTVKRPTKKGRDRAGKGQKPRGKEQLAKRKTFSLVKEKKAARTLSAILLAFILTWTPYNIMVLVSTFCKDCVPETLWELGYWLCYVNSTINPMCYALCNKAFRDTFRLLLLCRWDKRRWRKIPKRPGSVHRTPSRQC

[1] = biological target: T2, human A1 subtype adenosine receptor (Homo sapiens, UniProt P30542); test: Affinity towards the adenosine A1 receptor ([3H]-DPCPX binding, CHO-K1 membranes); details: read-out: A1 Ki (nM) ± sd
T2 construct: expressed in transfected cells; host or cells: CHO-K1
T2 sequence (P30542 1-326): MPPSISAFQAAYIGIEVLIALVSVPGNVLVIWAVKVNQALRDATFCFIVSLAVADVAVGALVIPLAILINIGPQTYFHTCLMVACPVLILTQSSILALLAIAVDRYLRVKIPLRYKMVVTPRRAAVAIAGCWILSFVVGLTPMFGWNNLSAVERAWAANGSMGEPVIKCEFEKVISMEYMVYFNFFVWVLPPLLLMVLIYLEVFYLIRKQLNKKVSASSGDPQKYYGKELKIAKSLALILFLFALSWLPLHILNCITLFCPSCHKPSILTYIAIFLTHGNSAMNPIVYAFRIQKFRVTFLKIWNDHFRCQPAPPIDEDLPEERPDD

CD1 mice = test: Associated L-DOPA and A2a antagonists on Haloperidol-induced catalepsy; format: in vivo; details: ST 1535 1.25 or 2.5 mg/kg per os; L-DOPA 12.5 mg/kg; benserazide 3.12 mg/kg i.p.; Haloperidol 4 mg/kg i.p.
Description: For this study, product ST 1535 was used.
CD1 mice, divided into different experimental groups (n=10 per group) were used. All animals were subjected to treatment with Haloperidol (4 mg/kg, i.p.) two hours and 30′ prior to the catalepsy test, carried out according to the method described above.
Later, the animals were subjected to different types of treatment according to their original experimental group (see diagram). All catalepsy evaluations were carried out 2 hours and 30 minutes after Haloperidol treatment.
Haloperidol+ST 1535: ST 1535 2.5 mg/kg, per os, 75′ prior to testing;
Haloperidol+benserazide+L-Dopa: Benserazide 3.12 mg/kg i.p., 90′ prior to testing;
L-DOPA:. 12.5 mg/kg, 60′ prior to testing;
Aloperidol+benserazide+L-Dopa+ST 1535: Benserazide 3.12 mg/kg i.p., 90′ prior to testing;
L-DOPA 12.5 mg/kg, 60′ prior to testing;

CD1 male mice = test: Capacity of the products to induce catalepsy in mice; format: in vivo; details: endoperitoneal, 30 minutes prior to the test
Description: (§1) 10 CD1 male mice were used per group. For this test, a steel bar, 10 cm long, was placed at a height of 4.5 cm above the support surface. Onto this, were placed the front legs of the animals. The presence of catalepsy was determined by measuring the time (in seconds) the animal remained in the posture placed. Later, this parameter was placed relatively, on a scale of rising values (0 to 5) through which, the degree of catalepsy determined in both control animals and in these subjected to treatment with the substances under test could be proportionately expressed.
The reference products and these in this study were administered endoperitoneally, in a volume of 10 ml/kg, 30 minutes prior to the test.
Except for CGS 21680 (reference compound) which was dissolved in 0.9% NaCl, the products in the study and the control antagonist ZM 241385 were solubilised in DMSO and then diluted in Cremofor EL and 0.9% NaCl (final concentrations: DMSO 15%, Cremofor EL 15%, NaCl 0.9%).

mice = test: Capacity to antagonise Haloperidol-induced catalepsy; format: in vivo; details: orally 10 mg/kg and 20 mg/kg; Haloperidol 4 mg/Kg endoperitoneal
Description: as §1
For this study, product ST 1535 was used. Catalepsy was induced in the animals through the endoperitoneal administration of Haloperidol at a dose of 4 mg/Kg, two hours prior measuring catalepsy in the animals, the presence of which was determined according to the method described previously.
After scoring for catalepsy by Haloperidol, the animals were treated orally, with a dose equal to 10 mg/kg and 20 mg/kg of the product ST 1535. Then 60 minutes after treatment, the animals were subjected to further catalepsy scoring, which was carried out at the following times after ST 1535 administration: 120′, 240′, 300′.

human A2a receptor = human A2a receptor (Homo sapiens, UniProt P29274); test: biochemical
human A2a receptor, sequence (P29274 whole entry): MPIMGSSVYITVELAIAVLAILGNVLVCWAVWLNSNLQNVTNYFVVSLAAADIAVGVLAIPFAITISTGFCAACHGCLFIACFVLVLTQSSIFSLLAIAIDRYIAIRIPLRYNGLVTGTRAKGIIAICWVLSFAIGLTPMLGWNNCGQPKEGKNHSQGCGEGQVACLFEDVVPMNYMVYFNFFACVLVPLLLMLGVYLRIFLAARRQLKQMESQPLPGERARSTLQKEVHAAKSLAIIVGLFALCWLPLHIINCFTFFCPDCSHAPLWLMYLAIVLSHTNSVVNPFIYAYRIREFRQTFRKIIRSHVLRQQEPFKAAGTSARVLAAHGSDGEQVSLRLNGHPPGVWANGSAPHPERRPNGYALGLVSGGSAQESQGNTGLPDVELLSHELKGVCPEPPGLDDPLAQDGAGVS

D3, sequence (P35462 whole entry): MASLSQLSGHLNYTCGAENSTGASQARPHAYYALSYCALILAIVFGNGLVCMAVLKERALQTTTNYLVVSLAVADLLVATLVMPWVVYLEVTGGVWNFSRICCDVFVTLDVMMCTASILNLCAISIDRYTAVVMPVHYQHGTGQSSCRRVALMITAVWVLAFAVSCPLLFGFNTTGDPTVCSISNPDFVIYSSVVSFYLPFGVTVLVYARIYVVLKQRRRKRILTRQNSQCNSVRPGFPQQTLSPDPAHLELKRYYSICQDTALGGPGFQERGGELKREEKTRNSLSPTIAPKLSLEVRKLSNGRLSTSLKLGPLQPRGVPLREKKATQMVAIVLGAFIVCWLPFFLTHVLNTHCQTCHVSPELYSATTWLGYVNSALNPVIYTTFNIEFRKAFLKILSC

| Ki (human A2a receptor) [nM] | Structure (SMILES) | inhibition at 1 µM (D3) [%] | percent inhibition of control specific binding (GABAtransporter) | inhibition at 1 µM (β2) [%] | inhibition at 1 µM (Cholinetransporter) [%] | percent inhibition of control specific binding (BZD (central)) | inhibition at 1 µM (M3) [%] | inhibition at 1 µM (5-HT6 (h)) [%] | percent inhibition of control specific binding (α2(non-selective)) | percent inhibition of control specific binding (P2X) | inhibition at 1 µM (5-HT3 (h)) [%] | inhibition at 1 µM (M1) [%] | Ki [1] [nM] | combination with sub threshold dose of L-DOPA plus benserazide on Haloperidol-induced catalepsy (FIG. 4) (CD1 mice) | appearance of catalepsy in mice (FIG. 1) (CD1 male mice) | effect on Haloperidol induced catalepsy (FIG. 3) (mice) |
| --- | --- | --- | --- | --- | --- | --- | --- | --- | --- | --- | --- | --- | --- | --- | --- | --- |
|  | CCCCCc1nc(N)c2nc(-n3nccn3)n(C)c2n1 [ST 2097, 9-methyl-2-pentyl-8-(2H-1,2,3-triazol-2-yl)-9H-purine-6-ylamine] | < 10 | — (The symbol — indicates an inhibition of less than 10%.) | < 10 | < 10 | — (The symbol — indicates an inhibition of less than 10%.) | < 10 | < 10 | — (The symbol — indicates an inhibition of less than 10%.) | — (The symbol — indicates an inhibition of less than 10%.) | < 10 | < 10 | 26.2 ± 6.55 |  |  |  |
| 2.29 ± 0.58 | CCCCc1nc(N)c2nc(-n3nccn3)n(C)c2n1 [ST 1535, 2-butyl-9-methyl-8-(2H-1,2,3-triazol-2-yl)-9H-purine-6-ylamine] | < 10 | — (The symbol — indicates an inhibition of less than 10%.) | < 10 | < 10 | — (The symbol — indicates an inhibition of less than 10%.) | < 10 | < 10 | — (The symbol — indicates an inhibition of less than 10%.) | — (The symbol — indicates an inhibition of less than 10%.) | < 10 | < 10 | 107 ± 40 | potentiates the anticataleptic activity of treatment with ineffective doses of L-DOPA and benserazide | none of them brought about the appearance of catalepsy in mice | reduces the appearance of catalepsy in mice |
